# Experimental data published in US20240018470A1, “METHOD OF MANIPULATING PLURIPOTENCY IN CELLS” (YALE UNIVERSITY, priority 2022, published 2024).
# Legend:
# Assay type in all cases: in vivo, Xenopus tropicalis
# Xenopus embryos [1] = assay: Gastrulation scoring (incomplete blastopore closure) in treated or kcnh6-depleted embryos; conditions: kcnh6 depletion, injected at one-cell stage
# Description: All injections of Xenopus embryos were performed at the one-cell stage using a fine glass needle and Picospritzer system. A kcnh6 translation blocking (kcnh6 MO, 5′-[…]-3′, SEQ ID NO:1) and a scrambled morpholino oligonucleotide were obtained from Gene Tools LLC and injected at 10 ng to deplete kcnh6 or as a control, respectively. CRISPR sgRNAs for kcnh6 targeted either exon 3 or exon 4 based on the v7.1 gene model of the X. tropicalis genome (CRex3: 5′-[…]-3′, SEQ ID NO:2 and CRex4: 5′-[…]-3′, SEQ ID NO:3). CRISPR sgRNAs for cacna1c (5′-[…]-3′, SEQ ID NO:4) and cacna1g (5′-[…]-3′, SEQ ID NO:5) were designed from the v7.1 model of the Xenopus tropicalis genome. For F0 CRISPR knockdown, embryos were injected with 1.5 ng Cas9 Protein (PNA-Bio) and 400 pg of targeting sgRNA and raised to desired stages. […] Full length human KCNH6 (NM 030779.3; cloned in pCS107), GCaMP6 (subcloned in pCSDest) and mCherry cDNAs (Addgene #34935; in pCS2+), were used to generate capped mRNAs in vitro by first linearizing with appropriate restriction enzymes and then transcribing with the mMessage machine kit (Ambion). mRNAs were injected at 3 pg (human KCNH6), 150 pg (GCaMP6) and 150 pg (mCherry) per embryo. Embryos were raised at 21° C. to allow time for sufficient expression levels at blastula/gastrula stages.
# (§1) Normal embryonic medium is 1/9× modified Ringer's (MR) containing 11 mM NaCl, 0.2 mM KCl, 0.2 mM CaCl2), 0.1 mM Mg2Cl and 0.55 mM HEPES. To allow Ergtoxin to penetrate the embryos, the present study manually removed the vitelline envelope of stage 8 embryos and incubated embryos in 1/9×MR containing 50 nM Ergtoxin (Alomone STE-450) until stage 12. Embryos were then transferred back into 1/9×MR lacking Ergtoxin to develop until stage 45 in order to score organ situs. Barium chloride was applied into the medium at 20 mM and embryos were thoroughly rinsed in 1/9×MR after each incubation period for further development in Ba2+-free medium. For extracellular K^+ manipulations, the KCl concentration in 1/9×MR was modified from 0.2 mM (normal) to 20 mM (high) or 0 mM (low). The ionophore valinomycin (ACROS) and L-type VGCC blocker Nifedipine (ACROS) were diluted in DMSO as stock solutions and applied to embryos in 1/9×MR at 2 nM and 10 μM respectively. Treatments performed during gastrulation were applied from stage 8 through stage 12, and embryos were then rinsed thoroughly and returned into 1/9×MR. For rapamycin, the present study created a standard stock solution of 50 mg/ml in DMSO. The stock solution was diluted 1:2500 in the appropriate embryonic media (final 20 μg/ml). Embryos were treated at stage 7 and then fixed at stage 11 for in situ hybridization.
# (§2) In experiments where embryos were evaluated for phenotypes and scored (gastrulation, left-right patterning, in situ hybridizations) the present study carried out three to five biological replicates and Fisher's exact test to evaluate statistical significance. The animal cap experiment was performed twice with a total score of four to eight animal caps per experiment. For the calcium transient analyses, data was collected from three to five embryos in each experiment in three independent experiments, and statistical analyses on GCaMP/mCherry fluorescence intensity as well as Ca^2+ transient area were performed using student's t-test. For whole cell electrophysiological recordings, three to five embryos (two cells each) were examined for their membrane potential and statistical significance was tested by student's t-test. Graphs were designed using GraphPad Prism software. Models were created with BioRender.com.
# Xenopus embryos [2] = assay: Organ situs (left-right patterning) scoring in stage 45 tadpoles; conditions: kcnh6 depletion, injected at one-cell stage
# Description: Stage 45 Xenopus embryos were paralyzed with benzocaine or tricaine and scored with a light stereomicroscope. Cardiac looping was determined by position of the outflow tract; D-loop: rightward, L-loop: leftward; A-loop: midline. Normal intestinal looping was scored as counter-clockwise rotation of the gut, while abnormal intestinal looping was scored as completely inverse gut rotation (clockwise) or complete lack of looping (un-looped). While a completely inverted gut rotation is clearly an abnormality of LR patterning, an unlooped gut is less clear so the present study only considered an unlooped gut as abnormal situs when combined with abnormal placement (left-sided or midline) of the gall bladder. To quantify total abnormal organ situs, each tadpole was counted only once, regardless of whether multiple organs were affected.
# as §1, §2
# [3] = test system: animal pole cells (prospective ectoderm); assay: Intracellular Vm recordings in animal pole cells; conditions: stage 10 (gastrulation onset), animal pole, MO injected embryos
# From the text: For recordings, devitellinized, stage 10 kcnh6 or control MO injected embryos were mounted into non-toxic clay with their animal pole exposed and covered with 1/9×MR. To investigate the resting potential, animal pole cells were impaled with a high-impedance (˜70 Me), sharp microelectrode filled with 3 M KCl for intracellular recordings. The recordings were made using an Axon 200B amplifier and digitized using a Digidata 1320 digitizer. Jclamp software for Windows was used in current clamp mode. All electrodes were zeroed just before entry into the cells.
# For the series of intracellular recordings in high K^+ and choline treated embryos, stage 8-9 embryos were impaled similarly with an electrode of […]. These recordings were made using a HEKA EPC10 amplifier. The present study used HEKA PatchMaster v2x67 software for Windows. […]
# In experiments where embryos were evaluated for phenotypes and scored (gastrulation, left-right patterning, in situ hybridizations) the present study carried out three to five biological replicates and Fisher's exact test to evaluate statistical significance. […] For the calcium transient analyses, data was collected from three to five embryos in each experiment in three independent experiments, and statistical analyses on GCaMP/mCherry fluorescence intensity as well as Ca^2+ transient area were performed using student's t-test. […]
# [4] = test system: animal pole of stage 10 embryos; assay: Calcium imaging (GCaMP6/mCherry) of the animal pole; conditions: stage 10, 20 s time lapse
# Description: GCaMP6 and mCherry mRNAs were mixed and injected into embryos at the one-cell stage. Half of these embryos were then injected with kcnh6 MO and the other half with control MO, still at the one-cell stage. Embryos were transferred at stage 10 into the round wells of a press-to-seal silicone isolator (Sigma 53685) mounted between two cover slips in 2% Methylcellulose- 1/9×MR. GcaMP6 and mCherry fluorescence was then captured for 20s (1 frame per second) via time lapse in the whole animal pole of each embryo with a 20× objective of an LSM710 confocal microscope using identical acquisition settings across Control MO and kcnh6 MO embryos. […] However, all embryos did display transient increases in GcaMP6 fluorescence, varying in intensity and spreading to multiple cells. The frames of each recording were sorted to identify the calcium transient peak (in area), and GcAMP6 fluorescence intensity was quantified at peak as a ratio to mCherry in mCherry+ cells. The maximum Ca′ transient area was calculated by demarcating in Fuji the GCaMP6(+) vs GcaMP6(−) area of the animal pole at transient peak. […]
# In experiments where embryos were evaluated for phenotypes and scored (gastrulation, left-right patterning, in situ hybridizations) the present study carried out three to five biological replicates and Fisher's exact test to evaluate statistical significance. […]
substance,measurement,setting,value
"kcnh6 MO: kcnh6 translation blocking morpholino oligonucleotide, 5′-GGTCCTCGAAGTTTAGGATAAACAT-3′, SEQ ID NO:1 (all phosphorodiamidate morpholino (PMO))",inability to complete gastrulation,Xenopus embryos [1],31±3%
same,abnormal organ situs,Xenopus embryos [2],91±7%
same,Vm,[3],−21.8±4.6 mV
same,"animal pole area simultaneously affected by Ca^2+ transients, average",[4],71±11%
same,animal pole area with simultaneous calcium increases in most embryos,[4],> 90%
